In patent US9586951B2 (FUJIFILM Corporation, priority 2013, dated 2017):

Tests used:
[1] = tested on: human non-small cell lung cancer cell line NCI-H460; experiment: Cell proliferation inhibition test by sensitivity-enhancing to ionizing radiation (Cell Titer Glo); assay type: cell-based; conditions: concentration in which SER became 2, NCI-H460 cells, ionizing radiation 2 Gy, cultured 120 hour
Procedure, shortened: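 Radiosensitisation measured as SER, a ratio of Cell Titer Glo luminescence in irradiated vs unirradiated plates relative to DMSO; SER2, the concentration yielding SER 2, came from sigmoidal regression. Compound (0.1% DMSO) was given 24 h post-seeding, 2 Gy applied 30 min later, then 120 hour culture at 37° C.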

[2] = biological target: T1, ATM (Homo sapiens, UniProt Q13315); experiment: ATM inhibition test (phosphorylation of Chk2 generated by ionizing radiation, AlphaScreen SureFire); assay type: cell-based; conditions: phosphorylated Chk2 in NCI-H460 cells, ionizing radiation 8Gy, 1 hour after test compound treatment; read-out: ATM inhibitory activity
T1 construct: detecting phosphorylation of Chk2 in a human non-small cell lung cancer cell line NCI-H460 (ATCC company); host or cells: NCI-H460 human non-small cell lung cancer cells
Procedure, shortened: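 NCI-H460 cells, compound 1 h pre-treatment, 8Gy IR, further 1 h at 37° C in 5% CO2. Read-out: phospho-Chk2 via AlphaScreen SureFire. % inhibition relative to IR-induced signal window (irradiated vs non-irradiated drug-free wells).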

T1 sequence (Q13315 whole entry): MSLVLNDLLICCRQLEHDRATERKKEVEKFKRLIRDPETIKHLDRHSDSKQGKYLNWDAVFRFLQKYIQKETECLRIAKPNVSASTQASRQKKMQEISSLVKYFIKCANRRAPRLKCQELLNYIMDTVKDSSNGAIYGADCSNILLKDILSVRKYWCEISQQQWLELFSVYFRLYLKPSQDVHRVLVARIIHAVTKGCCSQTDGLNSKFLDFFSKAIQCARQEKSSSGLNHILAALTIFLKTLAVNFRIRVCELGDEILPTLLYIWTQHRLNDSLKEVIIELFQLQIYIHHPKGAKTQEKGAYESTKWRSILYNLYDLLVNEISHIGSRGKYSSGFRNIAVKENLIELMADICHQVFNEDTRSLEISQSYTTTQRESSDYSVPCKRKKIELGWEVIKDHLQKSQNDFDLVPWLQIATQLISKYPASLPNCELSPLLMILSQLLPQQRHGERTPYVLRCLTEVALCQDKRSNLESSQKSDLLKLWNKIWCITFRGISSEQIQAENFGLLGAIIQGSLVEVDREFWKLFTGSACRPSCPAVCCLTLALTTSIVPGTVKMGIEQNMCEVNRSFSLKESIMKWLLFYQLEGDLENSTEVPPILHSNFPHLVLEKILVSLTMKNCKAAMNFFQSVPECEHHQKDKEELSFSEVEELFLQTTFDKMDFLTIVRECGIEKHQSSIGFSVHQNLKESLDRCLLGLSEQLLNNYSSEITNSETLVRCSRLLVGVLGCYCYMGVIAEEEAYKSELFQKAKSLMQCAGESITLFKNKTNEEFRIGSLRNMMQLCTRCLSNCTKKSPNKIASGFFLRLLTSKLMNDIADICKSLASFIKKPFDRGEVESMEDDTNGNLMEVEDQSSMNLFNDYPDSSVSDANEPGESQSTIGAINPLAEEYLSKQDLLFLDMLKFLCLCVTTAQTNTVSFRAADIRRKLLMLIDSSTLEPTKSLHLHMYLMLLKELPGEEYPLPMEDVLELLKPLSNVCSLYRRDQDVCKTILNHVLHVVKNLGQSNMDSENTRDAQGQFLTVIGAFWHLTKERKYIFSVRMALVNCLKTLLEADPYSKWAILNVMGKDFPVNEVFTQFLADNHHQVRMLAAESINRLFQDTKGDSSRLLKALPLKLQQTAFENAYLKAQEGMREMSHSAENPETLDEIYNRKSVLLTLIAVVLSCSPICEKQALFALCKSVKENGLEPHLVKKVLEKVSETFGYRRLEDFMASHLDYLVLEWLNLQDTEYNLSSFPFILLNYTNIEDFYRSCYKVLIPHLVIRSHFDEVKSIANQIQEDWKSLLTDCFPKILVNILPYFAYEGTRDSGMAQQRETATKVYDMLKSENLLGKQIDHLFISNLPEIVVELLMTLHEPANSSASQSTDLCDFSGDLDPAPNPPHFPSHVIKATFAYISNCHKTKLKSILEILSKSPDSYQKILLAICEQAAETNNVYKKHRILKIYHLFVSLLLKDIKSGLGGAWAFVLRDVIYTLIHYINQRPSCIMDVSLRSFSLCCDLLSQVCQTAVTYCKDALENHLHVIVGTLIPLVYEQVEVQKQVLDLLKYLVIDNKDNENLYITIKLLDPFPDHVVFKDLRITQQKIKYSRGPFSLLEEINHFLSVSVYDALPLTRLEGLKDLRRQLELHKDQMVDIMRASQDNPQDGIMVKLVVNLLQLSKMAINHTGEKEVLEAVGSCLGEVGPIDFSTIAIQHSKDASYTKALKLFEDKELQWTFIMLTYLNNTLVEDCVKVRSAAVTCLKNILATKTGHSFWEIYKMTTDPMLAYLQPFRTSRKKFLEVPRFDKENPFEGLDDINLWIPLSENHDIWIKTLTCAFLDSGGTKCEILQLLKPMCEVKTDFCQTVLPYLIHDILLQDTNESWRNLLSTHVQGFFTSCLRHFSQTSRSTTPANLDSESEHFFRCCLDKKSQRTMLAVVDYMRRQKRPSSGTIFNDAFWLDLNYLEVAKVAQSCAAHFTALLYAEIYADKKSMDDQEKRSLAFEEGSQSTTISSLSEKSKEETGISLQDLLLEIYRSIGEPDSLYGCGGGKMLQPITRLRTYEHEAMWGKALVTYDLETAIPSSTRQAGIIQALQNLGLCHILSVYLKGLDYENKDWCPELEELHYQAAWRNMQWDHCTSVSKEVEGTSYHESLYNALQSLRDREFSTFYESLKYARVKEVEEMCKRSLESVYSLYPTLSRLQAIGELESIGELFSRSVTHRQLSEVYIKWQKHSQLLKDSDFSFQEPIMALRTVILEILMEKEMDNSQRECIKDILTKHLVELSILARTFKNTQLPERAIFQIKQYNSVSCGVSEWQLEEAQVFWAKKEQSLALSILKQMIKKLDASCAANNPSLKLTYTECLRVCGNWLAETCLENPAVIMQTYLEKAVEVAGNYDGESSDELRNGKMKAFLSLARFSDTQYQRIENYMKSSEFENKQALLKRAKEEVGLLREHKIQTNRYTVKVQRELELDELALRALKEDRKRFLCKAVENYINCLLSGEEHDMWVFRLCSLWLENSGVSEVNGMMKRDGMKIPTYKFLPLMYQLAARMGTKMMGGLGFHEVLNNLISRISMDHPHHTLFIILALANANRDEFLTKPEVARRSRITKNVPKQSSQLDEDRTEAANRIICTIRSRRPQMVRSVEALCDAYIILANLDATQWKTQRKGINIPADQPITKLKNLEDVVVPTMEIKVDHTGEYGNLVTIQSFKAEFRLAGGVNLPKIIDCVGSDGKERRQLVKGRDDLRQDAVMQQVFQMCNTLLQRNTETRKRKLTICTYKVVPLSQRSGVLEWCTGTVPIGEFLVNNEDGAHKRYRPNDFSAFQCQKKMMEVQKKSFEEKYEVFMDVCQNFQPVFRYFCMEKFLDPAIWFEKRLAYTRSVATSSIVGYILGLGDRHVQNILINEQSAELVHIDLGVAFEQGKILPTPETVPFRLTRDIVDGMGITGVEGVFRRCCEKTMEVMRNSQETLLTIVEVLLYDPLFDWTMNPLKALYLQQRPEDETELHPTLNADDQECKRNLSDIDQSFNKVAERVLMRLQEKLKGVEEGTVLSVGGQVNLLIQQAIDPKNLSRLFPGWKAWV

Structure (SMILES)	SER2 (concentration at which the radiation sensitivity-enhancement ratio reaches 2) ([1]; Homo sapiens, NCI-H460, 120 h)	IC50 [2]	SER2 (concentration at which the radiation sensitivity-enhancement ratio reaches 2) [1]
O=c1cc(N2CCOCC2)cc(-c2cccc3c2Oc2ccc(NCc4cccc(Cl)n4)cc2S3)[nH]1 [Example 4-4-20, 6-(8-(((6-Chloropyridin-2-yl)methyl)amino)phenoxathiin-4-yl)-4-morpholino pyridin-2(1H)-one]	100 to 500 nM	< 0.1 µM	–
Cc1ccc(C(Nc2ccc3c(c2)Sc2cccc(-c4cc(N5CCOCC5)cc(=O)[nH]4)c2S3)C2CCN(C)CC2)nc1 (centres unmarked) [Example 1-35, 6-(7-(((1-methylpiperidin-4-yl)(5-methylpyridin-2-yl)methyl)amino)thianthren-1-yl)-4-morpholinopyridin-2(1H)-one]	< 100 nM	< 0.1 µM	–
COC(=O)C(Nc1ccc2c(c1)Sc1cccc(-c3cc(N4CCOCC4)cc(=O)[nH]3)c1S2)c1cccc(C)n1 (centres unmarked) [Example 1-12-107, Methyl 2-(6-methylpyridin 2-yl)-2-((6-(4-morpholino-6-oxo-1,6-dihydropyridin-2 yl)thianthren-2-yl)amino) acetate]	100 to 500 nM	< 0.1 µM	–
Cc1ccc(C(C)Nc2ccc3c(c2)Sc2cccc(-c4cc(N5CCOCC5)cc(=O)[nH]4)c2S3)nc1 (centres unmarked) [Example 1-12-113, 6-(7-((1-(5-Methylpyridin-2-yl)ethyl)amino)thianthren-1-yl)-4-morpholino pyridin-2(1H)-one]	100 to 500 nM	< 0.1 µM	–
CC(Nc1ccc2c(c1)Cc1cccc(-c3cc(N4CCOCC4)cc(=O)[nH]3)c1O2)c1nccc(C(F)F)n1 (stereo not drawn) [Example 2-14-62, 6-(7-((l-(4-(Difluoromethyl)pyrimidin-2-yl)ethyl)amino)-9H-xanthen-4-yl)-4-morpholino pyridin-2(1H)-one]	100 to 500 nM	< 0.1 µM	–
COCCN1CCC(Nc2ccc3c(c2)Sc2cccc(-c4cc(N5CCOCC5)cc(=O)[nH]4)c2S3)CC1 [Example 1-26-1, 6-(7-((1-(2-methoxyethyl)piperidin-4-yl)amino)thianthren-1-yl)-4-morpholinopyridin-2(1H)-one]	100 to 500 nM	< 0.1 µM	–
O=c1cc(N2CCOCC2)cc(-c2cccc3c2Sc2ccc(NCc4cc(Cl)ccn4)cc2S3)[nH]1 [Example 1-12-3, 6-(7-(((4-Chloropyridin-2-yl)methyl)amino)thianthren-1-yl)-4-morpholino pyridin-2 (1H)-one]	100 to 500 nM	< 0.1 µM	–
CN(C)c1nccc(CNc2ccc3c(c2)Cc2cccc(-c4cc(N5CCOCC5)cc(=O)[nH]4)c2O3)n1 [Example 2-13-5, 6-(7-(((2-(Dimethylamino)pyrimidin-4-yl)methyl)amino)-9H-xanthen-4-yl)-4-morpholino pyridin-2(1H)-one]	500 to 2000 nM	< 0.1 µM	–
O=c1cc(N2CCOCC2)cc(-c2cccc3c2Oc2ccc(NCc4cncc(-n5cccc5)c4)cc2S3)[nH]1 [Example 4-4-8, 6-(8-(((5-(1H-Pyrrol-1-yl)pyridin-3-yl)methyl)amino)phenoxathiin-4-yl)-4-morpholino pyridin-2(1H)-one]	100 to 500 nM	< 0.1 µM	–
Cc1cccc(C(CO)Nc2ccc3c(c2)Sc2cccc(-c4cc(N5CCOCC5)cc(=O)[nH]4)c2S3)n1 (centres unmarked) [Example 1-12-71, 6-(7-((2-Hydroxy-1-(6-methylpyridin-2-yl)ethyl)amino)thianthren-1-yl)-4-morpholino pyridin-2(1H)-one]	100 to 500 nM	< 0.1 µM	–
Cc1ccc(C(Nc2ccc3c(c2)Sc2cccc(-c4cc(N5CCOCC5)cc(=O)[nH]4)c2S3)C2CCN(C)CC2)nc1 (single isomer, unassigned) [Example 1-51-1, 6-(7-(((1-methylpiperidin-4-yl)(5-methylpyridin-2-yl)methyl)amino)thianthren-1-yl)-4-morpholinopyridin-2(1H)-one]	–	< 0.1 µM	< 100 nM
Cc1cnc(C(C)Nc2ccc3c(c2)Cc2cccc(-c4cc(N5CCOCC5)cc(=O)[nH]4)c2O3)nc1 (centres unmarked) [Example 2-14-80, 6-(7-((1-(5-Methylpyrimidin-2-yl)ethyl)amino)-9H-xanthen-4-yl)-4-morpholino pyridin-2 (1H)-one]	100 to 500 nM	< 0.1 µM	–
N#Cc1ccnc(CNc2ccc3c(c2)Sc2cccc(-c4cc(N5CCOCC5)cc(=O)[nH]4)c2O3)c1 [Example 4-4-28, 2-(((6-(4-Morpholino-6-oxo-1,6-dihydropyridin-2-yl)phenoxathiin-2-yl)amino)methyl) isonicotinonitrile]	100 to 500 nM	< 0.1 µM	–
CNCC(Nc1ccc2c(c1)Sc1cccc(-c3cc(N4CCOCC4)cc(=O)[nH]3)c1S2)c1cccc(C)n1 (centres unmarked) [Example 1-19-1, 6-(7-((2-(Methylamino)-1-(6-methylpyridin-2-yl)ethyl)amino)thianthren-1-yl)-4-morpholinopyridin-2(1H)-one]	100 to 500 nM	< 0.1 µM	–
COc1cncc(CN2CCC(Nc3ccc4c(c3)Cc3cccc(-c5cc(N6CCOCC6)cc(=O)[nH]5)c3O4)CC2)n1 [Example 2-28-23, 6-(7-((1-((6-Methoxypyrazin-2-yl)methyl)piperidin-4-yl)amino)-9H-xanthen-4-yl)-4-morpholino pyridin-2(1H)-one]	500 to 2000 nM	< 0.1 µM	–
COc1cc(OC)nc(CNc2ccc3c(c2)Cc2cccc(-c4cc(N5CCOCC5)cc(=O)[nH]4)c2O3)n1 [Example 2-2-51, 6-(7-(((4,6-Dimethoxypyrimidin-2-yl)methyl)amino)-9H-xanthen-4-yl)-4-morpholino pyridin-2 (1H)-one]	500 to 2000 nM	< 0.1 µM	–
O=c1cc(N2CCOCC2)cc(-c2cccc3c2Sc2ccc(NCc4cccc(Cl)n4)cc2S3)[nH]1 [Example 1-12-6, 6-(7-(((6-Chloropyridin-2-yl)methyl)amino)thianthren-1-yl)-4-morpholino pyridin-2 (1H)-one]	100 to 500 nM	< 0.1 µM	–
COc1cncc(C(C)Nc2ccc3c(c2)Sc2cccc(-c4cc(N5CCOCC5)cc(=O)[nH]4)c2S3)c1 (centres unmarked) [Example 1-12-9, 6-(7-((1-(5-Methoxypyridin-3-yl)ethyl)amino)thianthren-1-yl)-4-morpholino pyridin-2(1H)-one]	100 to 500 nM	< 0.1 µM	–
Cc1cccc(C(Nc2ccc3c(c2)Sc2cccc(-c4cc(N5CCOCC5)cc(=O)[nH]4)c2S3)C2CCCN(C)C2)n1 (single isomer, unassigned) [Example 1-22-4, 6-(7-(((1-Methylpiperidin-3-yl)(6-methylpyridin-2-yl)methyl)amino)thianthren-1-yl)-4-morpholino pyridin-2 (1H)-one]	< 100 nM	< 0.1 µM	–
COc1ccnc(CNc2ccc3c(c2)Cc2cccc(-c4cc(N5CCOCC5)cc(=O)[nH]4)c2O3)c1 [Example 2-2-38, 6-(7-(((4-Methoxypyridin-2-yl)methyl)amino)-9H-xanthen-4-yl)-4-morpholino pyridin-2(1H)-one]	100 to 500 nM	< 0.1 µM	–
Cc1cnc(C(C)Nc2ccc3c(c2)Sc2cccc(-c4cc(N5CCOCC5)cc(=O)[nH]4)c2S3)nc1 (single isomer, unassigned) [Example 1-12-139-1, 6-(7-((1-(5-methylpyrimidin-2-yl)ethyl)amino)thianthren-1-yl)-4-morpholinopyridin-2(1H)-one]	< 100 nM	< 0.1 µM	–
Cc1ccnc(CNc2ccc3c(c2)Sc2cccc(-c4cc(N5CCOCC5)cc(=O)[nH]4)c2S3)c1 [Example 1-12-5, 6-(7-(((4-Methylpyridin-2-yl)methyl)amino)thianthren-1-yl)-4-morpholino pyridin-2 (1H)-one]	100 to 500 nM	< 0.1 µM	–
O=c1cc(N2CCOCC2)cc(-c2cccc3c2Oc2ccc(NCc4cc(Cl)ccn4)cc2C3)[nH]1 [Example 2-2-64, 6-(7-(((4-Chloropyridin-2-yl)methyl)amino)-9H-xanthen-4-yl)-4-morpholino pyridin-2(1H)-one]	100 to 500 nM	< 0.1 µM	–
Cc1cccc(C(Nc2ccc3c(c2)Sc2cccc(-c4cc(N5CCOCC5)cc(=O)[nH]4)c2S3)C2CCN(C)C2)n1 (single isomer, unassigned) [Example 1-22-6, 6-(7-(((6-Methylpyridin-2-yl)(1-methylpyrrolidin-3-yl)methyl)amino)thianthren-1-yl)-4-morpholino pyridin-2 (1H)-one]	< 100 nM	< 0.1 µM	–
Cc1cccc(C(Nc2ccc3c(c2)Sc2cccc(-c4cc(N5CCOCC5)cc(=O)[nH]4)c2S3)C2CCN(C)C2)n1 (single isomer, unassigned) [Example 1-22-7, 6-(7-(((6-Methylpyridin-2-yl)(1-methylpyrrolidin-3-yl)methyl)amino)thianthren-1-yl)-4-morpholino pyridin-2 (1H)-one]	–	< 0.1 µM	< 100 nM
